Test results published in US8247211B2, “Glycopeptide antibiotics” (American Cyanamid Company, priority 2001, dated 2012).
In brackets after ≈: the same amount, converted by molar mass. Numbered stars: 1 amine (or outer) side, 2 acyl side, 3 side chain; on linkers, the order of the positions; unused ones are H or OH. Square brackets hold non-standard residues; d marks the D form. Peptide text beside a SMILES is read from it. ξ: configuration not given here. X3 = CC1(C)OCC2OC(N3C(=N)NCC3C(O)C(N[*:1])C(=O)[*:2])C3OC(C)(C)OC3C2O1; ξEnduracididine(βξ-OH,4'ξ) = N=C1NCC(C(O)C(N)C(=O)O)N1; ξPhe(βξ-Me) = CC(c1ccccc1)C(N)C(=O)O

Experiments:
Assay in all cases: In vitro antibacterial evaluation: minimum inhibitory concentration (MIC), broth dilution method
Assay type in all cases: cell-based
Settings in all cases: 18 hours at 35° C.
Enterococcus sp. = system: Enterococcus sp.
Summary of the method: (§1)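 NCCLS M7-A2 broth dilution; Muller-Hinton II […]; 5×10^5 CFU/mL; 64-0.06 μg/mL. MIC = lowest concentration with no growth.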

Escherichia coli = system: Escherichia coli
Summary of the method: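 Values are minimum inhibitory concentrations, meaning the smallest antibiotic concentration that stops growth of the organism. They come from broth dilution in Muller-Hinton II […] per NCCLS guidance (M7-A2), using 5×10^5 CFU/mL and concentrations from 64 to 0.06 μg/mL.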

Staphylococcus sp. = system: Staphylococcus sp.
Summary of the method: as §1

Streptococcus sp. = system: Streptococcus sp.
Summary of the method: as §1

Row | MIC Enterococcus avium (GC 4558) (Enterococcus sp.) | MIC Enterococcus faecalis (ATCC 29212) (Enterococcus sp.) | MIC Enterococcus faecalis (GC 2242) (Enterococcus sp.) | MIC Enterococcus faecalis (GC 4553) (Enterococcus sp.) | MIC Enterococcus faecalis (GC 4554) (Enterococcus sp.) | MIC Enterococcus faecium (GC 2243) (Enterococcus sp.) | MIC Enterococcus faecium (GC 4556) (Enterococcus sp.) | MIC Enterococcus faecium (GC 4557) (Enterococcus sp.) | MIC Escherichia coli (ATCC 25922) (Escherichia coli) | MIC Escherichia coli (GC 4559) (Escherichia coli) | MIC Escherichia coli (GC 4560) (Escherichia coli) | MIC Coagulase Negative Staphylococcus (GC 4547) (Staphylococcus sp.) | MIC Coagulase Negative Staphylococcus (GC 4548) (Staphylococcus sp.) | MIC Coagulase Negative Staphylococcus (GC 4549) (Staphylococcus sp.) | MIC Coagulase Negative Staphylococcus (GC 4551) (Staphylococcus sp.) | MIC Staphylococcus aureus (ATCC 29213) (Staphylococcus sp.) | MIC Staphylococcus aureus (GC 1131) (Staphylococcus sp.) | MIC Staphylococcus aureus (GC 4541) (Staphylococcus sp.) | MIC Staphylococcus aureus (GC 4542) (Staphylococcus sp.) | MIC Staphylococcus aureus (GC 4544) (Staphylococcus sp.) | SMILES | other results
1 | >64 µg/mL | >64 µg/mL | >64 µg/mL | >64 µg/mL | >64 µg/mL | >64 µg/mL | >64 µg/mL | >64 µg/mL | >64 µg/mL | >64 µg/mL | >64 µg/mL | >64 µg/mL | >64 µg/mL | >64 µg/mL | >64 µg/mL | >64 µg/mL | >64 µg/mL | >64 µg/mL | >64 µg/mL | >64 µg/mL | CC(c1ccccc1)C1NC(=O)CNC(=O)C(CO)NC(=O)C(C(O)C2CNC(=N)N2C2OC3COC(C)(C)OC3C3OC(C)(C)OC32)NC(=O)C(C(O)C2CNC(=N)N2)NC(=O)C(Cc2ccc(O)cc2)NC1=O (stereo not drawn) [Example 247, Cyclo[glycyl-β-methylphenylalanyltyrosyl-3-(2-iminoimidazolidin-4-yl)seryl-3-(2,3:4,6-diisopropylidenehexopyranosyl)-2-iminoimidazolidin-4-ylserylseryl]] (cyclo(G[ξPhe(βξ-Me)]Y[ξEnduracididine(βξ-OH,4'ξ)][X3]S); configuration not given here) | MIC Enterococcus faecalis (GC 2691) (Enterococcus sp.): >64 µg/mL; MIC Enterococcus faecalis (GC 3059) (Enterococcus sp.; Enterococcus faecalis (GC 3059)): >64 µg/mL; MIC Enterococcus faecalis (GC 4552) (Enterococcus sp.): >64 µg/mL; MIC Enterococcus faecalis (GC 6189) (Enterococcus sp.): >64 µg/mL; MIC Coagulase Negative Staphylococcus (GC 6257) (Staphylococcus sp.): >64 µg/mL; MIC Staphylococcus aureus (GC 3051) (Staphylococcus sp.): >64 µg/mL; MIC Staphylococcus aureus (GC 3053) (Staphylococcus sp.): >64 µg/mL; MIC Staphylococcus aureus (GC 4545) (Staphylococcus sp.): >64 µg/mL; MIC Staphylococcus aureus-SMITH (GC 4543) (Staphylococcus sp.): >64 µg/mL; MIC Staphylococcus haemolyticus (GC 4546) (Staphylococcus sp.): >64 µg/mL; MIC Streptococcus agalactiae (GC 4564) (Streptococcus sp.): >64 µg/mL; MIC Streptococcus pneumoniae (ATCC 6301) (Streptococcus sp.): >64 µg/mL; MIC Streptococcus pneumoniae (GC 1894) (Streptococcus sp.): >64 µg/mL; MIC Streptococcus pneumoniae (GC 4565) (Streptococcus sp.): >64 µg/mL; MIC Streptococcus pyogenes (GC 4563) (Streptococcus sp.): >64 µg/mL
2 | 8 µg/mL (≈ 6.86 µM) | 64 µg/mL (≈ 54.9 µM) | 64 µg/mL (≈ 54.9 µM) | 16 µg/mL (≈ 13.7 µM) | 64 µg/mL (≈ 54.9 µM) | 32 µg/mL (≈ 27.5 µM) | 32 µg/mL (≈ 27.5 µM) | 16 µg/mL (≈ 13.7 µM) | 64 µg/mL (≈ 54.9 µM) | 64 µg/mL (≈ 54.9 µM) | 8 µg/mL (≈ 6.86 µM) | 16 µg/mL (≈ 13.7 µM) | 32 µg/mL (≈ 27.5 µM) | 32 µg/mL (≈ 27.5 µM) | 32 µg/mL (≈ 27.5 µM) | 32 µg/mL (≈ 27.5 µM) | 32 µg/mL (≈ 27.5 µM) | 32 µg/mL (≈ 27.5 µM) | 64 µg/mL (≈ 54.9 µM) | 32 µg/mL (≈ 27.5 µM) | CC(c1ccccc1)C1NC(=O)CNC(=O)C(CO[Si](C)(C)C(C)(C)C)NC(=O)C(C(O)C2CNC(=N)N2C2OC3COC(C)(C)OC3C3OC(C)(C)OC32)NC(=O)C(C(O)C2CNC(=N)N2)NC(=O)C(Cc2ccc(O)cc2)NC1=O (centres unmarked) [Example 248] | MIC Enterococcus faecalis (GC 2691) (Enterococcus sp.): 32 µg/mL (≈ 27.5 µM); MIC Enterococcus faecalis (GC 6189) (Enterococcus sp.): 32 µg/mL (≈ 27.5 µM); MIC Coagulase Negative Staphylococcus (GC 6257) (Staphylococcus sp.): 16 µg/mL (≈ 13.7 µM); MIC Staphylococcus aureus (GC 3051) (Staphylococcus sp.): 64 µg/mL (≈ 54.9 µM); MIC Staphylococcus aureus (GC 3053) (Staphylococcus sp.): 64 µg/mL (≈ 54.9 µM); MIC Staphylococcus aureus (GC 4545) (Staphylococcus sp.): 32 µg/mL (≈ 27.5 µM); MIC Staphylococcus aureus-SMITH (GC 4543) (Staphylococcus sp.): 32 µg/mL (≈ 27.5 µM); MIC Staphylococcus haemolyticus (GC 4546) (Staphylococcus sp.): 16 µg/mL (≈ 13.7 µM); MIC Streptococcus agalactiae (GC 4564) (Streptococcus sp.): 64 µg/mL (≈ 54.9 µM); MIC Streptococcus pneumoniae (ATCC 6301) (Streptococcus sp.): 64 µg/mL (≈ 54.9 µM); MIC Streptococcus pneumoniae (GC 1894) (Streptococcus sp.): 64 µg/mL (≈ 54.9 µM); MIC Streptococcus pyogenes (GC 4563) (Streptococcus sp.): 32 µg/mL (≈ 27.5 µM)
3 | >64 µg/mL | >64 µg/mL | >64 µg/mL | >64 µg/mL | >64 µg/mL | >64 µg/mL | >64 µg/mL | 64 µg/mL (≈ 45.4 µM) | >64 µg/mL | >64 µg/mL | 4 µg/mL (≈ 2.84 µM) | >64 µg/mL | >64 µg/mL | >64 µg/mL | >64 µg/mL | >64 µg/mL | >64 µg/mL | >64 µg/mL | >64 µg/mL | >64 µg/mL | CCCCCNC(=O)OC1C(CO)OC(OC2C(CO)OC(Oc3ccc(CC4NC(=O)C(C(C)c5ccccc5)NC(=O)CNC(=O)C(CO)NC(=O)C(C(O)C5CNC(=N)N5C5OC(CO)C(O)C(O)C5O)NC(=O)C(C(O)C5CNC(=N)N5)NC4=O)cc3)C(O)C2O)C(O)C1O (stereo not drawn) [Example 251, α-O-[(Pentylamino)carbonyl]-cyclo[glycyl-β-methylphenylalanyl-O-(4-O-hexopyranosylhexopyranosyl)tyrosyl-3-(2-iminoimidazolidin-4-yl)seryl-3-(3-hexopyranosyl-2-iminoimidazolidin-4-yl)serylseryl]] | MIC Enterococcus faecalis (GC 4552) (Enterococcus sp.): >64 µg/mL; MIC Coagulase Negative Staphylococcus (ID-3941) (Staphylococcus sp.; Coagulase Negative Staphylococcus (ID-3941)): 64 µg/mL (≈ 45.4 µM); MIC Staphylococcus aureus (GC 4545) (Staphylococcus sp.): >64 µg/mL; MIC Staphylococcus aureus-SMITH (GC 4543) (Staphylococcus sp.): >64 µg/mL; MIC Staphylococcus haemolyticus (GC 4546) (Staphylococcus sp.): >64 µg/mL; MIC Streptococcus agalactiae (GC 4564) (Streptococcus sp.): >64 µg/mL; MIC Streptococcus pneumoniae (GC 4565) (Streptococcus sp.): 64 µg/mL (≈ 45.4 µM); MIC Streptococcus pyogenes (ID-3187) (Streptococcus sp.; Streptococcus pyogenes (ID-3187)): 64 µg/mL (≈ 45.4 µM)
